The values below come from patent US20240025906A1 (NEURON23, INC., priority 2022, published 2024).

Structures are written as SMILES.

The subject of test [1] is JAK1/TYK2 pSTAT5 (Tyr694/699) in THP-1 cell line. In words: IFNa-stimulated JAK1/TYK2 pSTAT5 (Tyr694/699) inhibition cellular assay, AlphaLISA. The format is cell-based. The note with it: Homo sapiens; THP-1 cells, IFNa-stimulated, AlphaLISA (Assay B); read-out: Cellular_THP1_IFNa-pSTATS_TYK2. The procedure, abridged: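 An eight-point 6-fold titration of compound (0.04–10000 nM final) is given to THP-1 cells for 1 h before 30 min of IFNa exposure. Phospho-STAT5 is read by AlphaLISA at 615 nm. IC50 values are derived by logistic regression with bottom set to 0 and Hill slope set to −1.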

Another test concerns the target T1, TYK2 JH2 (Homo sapiens, UniProt P29597).
T1 construct: purchased DiscoverX (KINOMEscan KdELECT service); host or cells: E. coli BL21-derived (T7 phage display) or HEK-293
The experiment in a line: TYK2 JH2 binding assay (KINOMEscan KdELECT competitive binding). Conditions: TYK2 JH2 domain, DiscoverX KINOMEscan KdELECT (Assay A); read-out: Biochemical TYK2_DiscoverX_JH2_BND_Kd. In a few lines: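 The assay measures displacement of DNA- or phage-tagged TYK2 pseudokinase domain from an affinity resin; compound binding lowers the amount captured, read by qPCR. Incubation lasts 1 h at room temperature.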

T1 sequence (P29597 589-875 limits assumed): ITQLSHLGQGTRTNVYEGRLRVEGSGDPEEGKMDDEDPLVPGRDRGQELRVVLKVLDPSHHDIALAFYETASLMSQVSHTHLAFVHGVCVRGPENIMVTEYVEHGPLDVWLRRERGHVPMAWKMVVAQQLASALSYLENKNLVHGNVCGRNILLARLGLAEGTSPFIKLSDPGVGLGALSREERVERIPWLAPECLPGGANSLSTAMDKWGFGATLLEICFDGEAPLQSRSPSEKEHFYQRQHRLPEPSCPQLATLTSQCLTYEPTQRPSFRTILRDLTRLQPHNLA

As for `CNc1ncc(-c2nc3cc(N4CCOC(C)C4)c(C)cc3o2)c2cc(NC(=O)C3CC3)ncc12` (stereo not shown) [Example 259, N-(5-(6-methyl-5-(2-methylmorpholino)benzo[d]oxazol-2-yl)-8-(methylamino)-2,7-naphthyridin-3-yl)cyclopropanecarboxamide], the IC50 in test [1] is ≤ 0.5 µM. The Kd on TYK2 JH2 was ≤ 0.1 µM.

For the molecule `CNc1ncc(-c2nc3cccc(N4CCC4COC)c3o2)c2cc(NC(=O)C3CC3)ncc12` (stereo not shown) [Example 263, N-(5-(7-(2-(methoxymethyl)azetidin-1-yl)benzo[d]oxazol-2-yl)-8-(methylamino)-2,7-naphthyridin-3-yl)cyclopropanecarboxamide], in test [1], the IC50 is > 0.5 µM. At TYK2 JH2, the Kd was ≤ 0.1 µM.

For `CNc1ncc(-c2nc3cccc(N4CC(COC)C4)c3o2)c2cc(NC(=O)C3CC3)ncc12` [Example 264, N-(5-(7-(3-(methoxymethyl)azetidin-1-yl)benzo[d]oxazol-2-yl)-8-(methylamino)-2,7-naphthyridin-3-yl)cyclopropanecarboxamide], in test [1], the IC50 is ≤ 0.5 µM. Further, the Kd on TYK2 JH2 was ≤ 0.1 µM.

Turning to `CNc1ncc(-c2nc3cccc(N4CCC4CO)c3o2)c2cc(NC(=O)C3CC3)ncc12` (stereo not shown) [Example 265, N-(5-(7-(2-(hydroxymethyl)azetidin-t-yl)benzo[d]oxazol-2-yl)-8-(methylamino)-2,7-naphthyridin-3-yl)cyclopropanecarboxamide], the IC50 in test [1] is ≤ 0.5 µM. Besides, the Kd at TYK2 JH2 was ≤ 0.1 µM.

Take `CNc1ncc(-c2nc3cccc(CC#N)c3o2)c2cc(NC(=O)C3CC3)ncc12` [Example 266, N-(5-(7-(cyanomethyl)benzo[d]oxazol-2-yl)-8-(methylamino)-2,7-naphthyridin-3-yl)cyclopropanecarboxamide]: in test [1], the IC50 was ≤ 0.5 µM. Also, on TYK2 JH2, the Kd is ≤ 0.1 µM.

Take `CNc1ncc(-c2nc3cccc(COC)c3o2)c2cc(NC(=O)C3CC3)ncc12` [Example 267, N-(5-(7-(methoxymethyl)benzo[d]oxazol-2-yl)-8-(methylamino)-2,7-naphthyridin-3-yl)cyclopropanecarboxamide]: the IC50 in test [1] is ≤ 0.5 µM. Moreover, the Kd on TYK2 JH2 was ≤ 0.1 µM.

With `CCO/C=C\c1cccc2nc(-c3cnc(NC)c4cnc(NC(=O)C5CC5)cc34)oc12` [Example 268, (Z)—N-(5-(7-(2-ethoxyvinyl)benzo[d]oxazol-2-yl)-8-(methylamino)-2,7-naphthyridin-3-yl)cyclopropanecarboxamide], the IC50 in test [1] is ≤ 0.5 µM. Besides, the Kd at TYK2 JH2 was ≤ 0.1 µM.

Consider `CCOCCc1cccc2nc(-c3cnc(NC)c4cnc(NC(=O)C5CC5)cc34)oc12` [Example 269, N-(5-(7-(2-ethoxyethyl)benzo[d]oxazol-2-yl)-8-(methylamino)-2,7-naphthyridin-3-yl)cyclopropanecarboxamide], for which the IC50 in test [1] is ≤ 0.5 µM. For the same molecule, on TYK2 JH2, the Kd is ≤ 0.1 µM.

In the case of `CNc1ncc(-c2nc3cccc(CCC#N)c3o2)c2cc(NC(=O)C3CC3)ncc12` [Example 270, N-(5-(7-(2-cyanoethyl)benzo[d]oxazol-2-yl)-8-(methylamino)-2,7-naphthyridin-3-yl)cyclopropanecarboxamide], the IC50 in test [1] was ≤ 0.5 µM. Also, at TYK2 JH2, the Kd was ≤ 0.1 µM.

Turning to `CNc1ncc(-c2nc3cccc(Cc4cocn4)c3o2)c2cc(NC(=O)C3CC3)ncc12` [Example 271, N-(8-(methylamino)-5-(7-(oxazol-4-ylmethyl)benzo[d]oxazol-2-yl)-2,7-naphthyridin-3-yl)cyclopropanecarboxamide], the IC50 in test [1] is ≤ 0.5 µM. Further, at TYK2 JH2, the Kd was ≤ 0.1 µM.

On to `CNc1ncc(-c2nc3c(Br)cccc3o2)c2cc(NC(=O)C3CC3)ncc12` [Example 272, N-(5-(4-bromobenzo[d]oxazol-2-yl)-8-(methylamino)-2,7-naphthyridin-3-yl)cyclopropanecarboxamide], for which the IC50 in test [1] is ≤ 0.5 µM. The Kd at TYK2 JH2 is ≤ 0.1 µM.

Consider `CNc1ncc(-c2nc3c(CC#N)cccc3o2)c2cc(NC(=O)C3CC3)ncc12` [Example 273, N-(5-(4-(cyanomethyl)benzo[d]oxazol-2-yl)-8-(methylamino)-2,7-naphthyridin-3-yl)cyclopropanecarboxamide], for which the IC50 in test [1] was ≤ 0.5 µM. Further, the Kd on TYK2 JH2 is ≤ 0.1 µM.

Regarding `CNc1ncc(-c2nc3ccc(N4CC(OC)C4)cc3o2)c2cc(NC(=O)C3CC3)ncc12` [Example 274, N-(5-(6-(3-methoxyazetidin-1-yl)benzo[d]oxazol-2-yl)-8-(methylamino)-2,7-naphthyridin-3-yl)cyclopropanecarboxamide], the IC50 in test [1] was ≤ 0.5 µM. Moreover, the Kd on TYK2 JH2 is ≤ 0.1 µM.

As to `CNc1ncc(-c2nc3ccc(N4CCO[C@@H](C)C4)cc3o2)c2cc(NC(=O)C3CC3)ncc12` [Example 275, (S)—N-(8-(methylamino)-5-(6-(2-methylmorpholino)benzo[d]oxazol-2-yl)-2,7-naphthyridin-3-yl)cyclopropanecarboxamide], in test [1], the IC50 is ≤ 0.5 µM. Besides, the Kd on TYK2 JH2 is ≤ 0.1 µM.

As to `CNc1ncc(-c2nc3ccc(N4CCO[C@H](C)C4)cc3o2)c2cc(NC(=O)C3CC3)ncc12` [Example 276, (R)—N-(8-(methylamino)-5-(6-(2-methylmorpholino)benzo[d]oxazol-2-yl)-2,7-naphthyridin-3-yl)cyclopropanecarboxamide], the IC50 in test [1] is ≤ 0.5 µM. Moreover, at TYK2 JH2, the Kd is ≤ 0.1 µM.

Turning to `CNc1ncc(-c2nc3cc(N4CCC4)ccc3o2)c2cc(NC(=O)C3CC3)ncc12` [Example 277, N-(5-(5-(azetidin-1-yl)benzo[d]oxazol-2-yl)-8-(methylamino)-2,7-naphthyridin-3-yl)cyclopropanecarboxamide], in test [1], the IC50 is ≤ 0.5 µM. For the same molecule, the Kd at TYK2 JH2 is ≤ 0.1 µM.

For the molecule `CNc1ncc(-c2nc3cc(N4CCC4COC)ccc3o2)c2cc(NC(=O)C3CC3)ncc12` (stereo not shown) [Example 278, N-(5-(5-(2-(methoxymethyl)azetidin-1-yl)benzo[d]oxazol-2-y1)-8-(methylamino)-2,7-naphthyridin-3-yl)cyclopropanecarboxamide], the IC50 in test [1] was ≤ 0.5 µM. At TYK2 JH2, the Kd was ≤ 0.1 µM.

In the case of `CNc1ncc(-c2nc3cc(N4CC(F)(F)C4)ccc3o2)c2cc(NC(=O)C3CC3)ncc12` [Example 279, N-(5-(5-(3,3-difluoroazetidin-1-yl)benzo[d]oxazol-2-yl)-8-(methylamino)-2,7-naphthyridin-3-yl)cyclopropanecarboxamide], the IC50 in test [1] is ≤ 0.5 µM. Moreover, the Kd on TYK2 JH2 was ≤ 0.1 µM.

As for `CNc1ncc(-c2nc3cc(N4CC(OC)C4)ccc3o2)c2cc(NC(=O)C3CC3)ncc12` [Example 280, N-(5-(5-(3-methoxyazetidin-1-yl)benzo[d]oxazol-2-y1)-8-(methylamino)-2,7-naphthyridin-3-yl)cyclopropanecarboxamide], the IC50 in test [1] was ≤ 0.5 µM. Moreover, the Kd on TYK2 JH2 is ≤ 0.1 µM.

On to `CNc1ncc(-c2nc3cc(N4CC[C@@H](OC)C4)ccc3o2)c2cc(NC(=O)C3CC3)ncc12` [Example 281, (R)-N-(5-(5-(3-methoxypyrrolidin-1-yl)benzo[d]oxazol-2-y1)-8-(methylamino)-2,7-naphthyridin-3-yl)cyclopropanecarboxamide], for which the IC50 in test [1] was ≤ 0.5 µM. Further, the Kd at TYK2 JH2 was ≤ 0.1 µM.

For `CNc1ncc(-c2nc3cc(N4CC[C@H](OC)C4)ccc3o2)c2cc(NC(=O)C3CC3)ncc12` [Example 282, (S)-N-(5-(5-(3-methoxypyrrolidin-1-yl)benzo[d]oxazol-2-y1)-8-(methylamino)-2,7-naphthyridin-3-yl)cyclopropanecarboxamide], in test [1], the IC50 was ≤ 0.5 µM. Further, the Kd at TYK2 JH2 was ≤ 0.1 µM.

For the molecule `CNc1ncc(-c2nc3cc(N4CC(O)C4)ccc3o2)c2cc(NC(=O)C3CC3)ncc12` [Example 283, N-(5-(5-(3-hydroxyazetidin-1-yl)benzo[d]oxazol-2-y1)-8-(methylamino)-2,7-naphthyridin-3-yl)cyclopropanecarboxamide], in test [1], the IC50 was ≤ 0.5 µM. Moreover, the Kd at TYK2 JH2 was ≤ 0.1 µM.

Take `CNc1ncc(-c2nc3cc(N4CC(F)C4)ccc3o2)c2cc(NC(=O)C3CC3)ncc12` [Example 284, N-(5-(5-(3-fluoroazetidin~1-yl)benzo[d]oxazol-2-y1)-8-(methylamino)-2,7-naphthyridin-3-yl)cyclopropanecarboxamide]: the IC50 in test [1] is ≤ 0.5 µM. Further, the Kd at TYK2 JH2 is ≤ 0.1 µM.

As to `CNc1ncc(-c2nc3cc(N4CC5COCC(C5)C4)ccc3o2)c2cc(NC(=O)C3CC3)ncc12` [Example 285, N-(5-(5-(3-oxa~7-azabicyclo[3.3.1]nonan-7-yl)benzo[d]oxazol-2-yl)-8-(methylamino)-2,7-naphthyridin-3-yl)cyclopropanecarboxamide], the IC50 in test [1] was ≤ 0.5 µM. Further, the Kd on TYK2 JH2 was ≤ 0.1 µM.

Turning to `CNc1ncc(-c2nc3cc(N4CC(C)(OC)C4)ccc3o2)c2cc(NC(=O)C3CC3)ncc12` [Example 286, N-(5-(5-(3-methoxy-3-methylazetidin-1-yl)benzo[d]oxazol-2-yl)-8-(methylamino)-2,7-naphthyridin-3-yl)cyclopropanecarboxamide], the IC50 in test [1] was ≤ 0.5 µM. Also, the Kd at TYK2 JH2 is ≤ 0.1 µM.

Turning to `CNc1ncc(-c2nc3cc(N4CC(N(C)C)C4)ccc3o2)c2cc(NC(=O)C3CC3)ncc12` [Example 287, N-(5-(5-(3-(dimethylamino)azetidin-1-yl)benzo[d]oxazol-2-y1)-8-(methylamino)-2,7-naphthyridin-3-yl)cyclopropanecarboxamide], in test [1], the IC50 is ≤ 0.5 µM. In addition, the Kd at TYK2 JH2 is ≤ 0.1 µM.
